From patent publication US9963461B2, “Phillygenin ibuprofen ester, preparation method therefor, and application thereof” (priority 2014, dated 2018)
Marks after values point to notes of the source that are not given here.

Columns and labels:
parainfluenza virus = assay: Impact of the drugs on the virus-induced cytopathy (MTT); format: cell-based; conditions: parainfluenza virus 100 TCID50, Vero cells, about the maximal non-cytotoxic concentration, 72 hours
[1] = test system: Coxsackie virus A16 (CoxA16); assay: as above; format: cell-based; conditions: CoxA16 100 TCID50, Vero cells, about the maximal non-cytotoxic concentration, 72 hours
[2] = test system: respiratory syncytial virus (RSV); assay: as above; format: cell-based; conditions: RSV 100 TCID50, Vero cells, about the maximal non-cytotoxic concentration, 72 hours
[3] = test system: coxsackie virus B3 (CVB3); assay: as above; format: cell-based; conditions: CVB3 100 TCID50, Vero cells, about the maximal non-cytotoxic concentration, 72 hours
influenza virus = assay: as above; format: cell-based; conditions: influenza virus 100 TCID50, Vero cells, about the maximal non-cytotoxic concentration, 72 hours
Adenovirus (AdV) = assay: as above; format: cell-based; conditions: ADV 100 TCID50, Vero cells, about the maximal non-cytotoxic concentration, 72 hours
Enterovirus EV71 = assay: as above; format: cell-based; conditions: EV71 100 TCID50, Vero cells, about the maximal non-cytotoxic concentration, 72 hours
[4] = test system: sweat gland epithelial cells at the rat toe part; assay: Sweat secretion of rat paw part (tissue morphology observation method); format: in vivo, Wistar rats; conditions: for Number of sweat glands of vacuole / Void fraction (%): rat toe part
From the text: This test was based on the mechanism that when rat sweat gland is excited, in addition to sweat secretion increase, the morphology of sweat gland epithelial cell is also changed. The number increase and expansion of empty cells of the sweat gland epithelial cells can be seen under the optical microscope. Such enlarged vacuole presents mitochondrial in sweat gland epithelial cells swelling, rupture, fusion and secretory vesicle enlargement under the electron microscope, and through the morphological observation of the sweat gland epithelial cell at the rat paw part, the secretory activity of the sweat gland can be known. In the test, 70 Wistar rats were selected, with equal male and female number, weighing 120-160 g. […] Besides that subcutaneous injection was used for the pilocarpine solution, intragastric administration was used for all the other groups.

[5] = test system: rat toe swelling induced by carrageenan; assay: Rat toe swelling induced by carrageenan; format: in vivo, Wistar rats
Protocol: The test groups were administered by sublingual intravenous injection. Before the test, capillary magnification measurement method was used to measure the normal volume of the right hind foot of the rats in each group. To avoid errors, the measurement location was fixed and the operation was made by one person both before and after the administration. The average value of the two measurements was taken as the normal volume of the right hind foot of the rats before administration. […] The difference between the groups was compared by inter-group t test processing through the difference percentage (swelling ratio) of the paw volume before and after the induced rat inflammation.

[6] = test system: Herpes Simplex Virus type I (HSV-1); assay: Impact of the drugs on the virus-induced cytopathy (MTT); format: cell-based; conditions: HSV-I 100 TCID50, Vero cells, about the maximal non-cytotoxic concentration, 72 hours
[7] = test system: beer yeast induced rat fever; assay: Beer yeast induced rat fever; format: in vivo, Wistar rats
Protocol: Male Wistar rats were selected, weighing 180-200 g. Before the test, WSC-411P portable digital thermometer was used to measure the normal rectal temperature twice (with certain interval for each time), and the average value of the two measurements was taken as the normal body temperature of the rat. Then 70 rats with the body temperature between 36.5° C. and 38° C. were chosen to be randomly divided into 7 groups by weight: the model (0.5% carboxymethylcellulose) group, the 2.5, 5, and 10 mg/kg phillygenin ibuprofen ester groups, the positive drug paracetamol (100 mg/kg) group, the ibuprofen group (i.e. prodrug control group, 300 mg/kg), the phillygenin group (100 mg/kg), with 10 rats for each group. Each group of rats were subjected to back subcutaneous injection with 10% fresh beer yeast suspension of 10 ml/kg to induce heat. After administration of 10% fresh beer yeast suspension for 6.0 h, phillygenin ibuprofen ester and paracetamol were both subjected to intragastric administration, and the model group was intragastrically administrated with equal volume of 0.5% carboxymethylcellulose. Rectal temperature was measured after 1 h, 2 h, 3 h and 4 h of the administration respectively. Changes in the body temperature were observed and difference between the groups was compared by inter-group t test processing through antipyretic percentage.

[8] = 2.5 mg/kg, 1 h after administration
[9] = 2.5 mg/kg, 2 h after administration
[10] = 2.5 mg/kg, 3 h after administration
[11] = 2.5 mg/kg, 4 h after administration
[12] = 5.0 mg/kg, 1 h after administration
[13] = 5.0 mg/kg, 2 h after administration
[14] = 5.0 mg/kg, 3 h after administration
[15] = 5.0 mg/kg, 4 h after administration
[16] = 10.0 mg/kg, 1 h after administration
[17] = 10.0 mg/kg, 3 h after administration
[18] = 10.0 mg/kg, 4 h after administration

COc1ccc([C@H]2OCC3C2CO[C@H]3c2ccc(OC)c(OC(=O)C(C)c3ccc(CC(C)C)cc3)c2)cc1OC (stereo partly shown) [Phillygenin ibuprofen ester, phillygenin ibuprofen ester]
antiviral effective rate (ER %) (parainfluenza virus): 100.00**^# %
antiviral effective rate (ER %) [1]: 75.89**^## %
antiviral effective rate (ER %) [2]: 87.74**^# %
antiviral effective rate (ER %) [3]: 75.83**^## %
antiviral effective rate (ER %) (influenza virus): 99.95**^# %
antiviral effective rate (ER %) (Adenovirus (AdV)): 75.90**^## %
antiviral effective rate (ER %) (Enterovirus EV71): 99.81**^## %
effect on the sweat secretion of the rat toe part vs control group ([4]; 5 and 10 mg/kg, p<0.01 or p<0.001): obvious promoting effect
Number of sweat glands of vacuole ([4]; 2.5 mg/kg intragastric): 20
Void fraction (%) ([4]; 2.5 mg/kg intragastric): 8.47%
Number of sweat glands of vacuole ([4]; 5.0 mg/kg intragastric): 42
Void fraction (%) ([4]; 5.0 mg/kg intragastric): 32.11***; ^# %
Number of sweat glands of vacuole ([4]; 10.0 mg/kg intragastric): 75
Void fraction (%) ([4]; 10.0 mg/kg intragastric): 35.21***; ^## %
Swelling ratio (%) ([5]; 2.5 mg/kg sublingual intravenous injection, 30 min): 0.215 ± 0.120%
Swelling ratio (%) ([5]; 2.5 mg/kg sublingual intravenous injection, 60 min): 0.293 ± 1.117%
Swelling ratio (%) ([5]; 2.5 mg/kg sublingual intravenous injection, 120 min): 0.450 ± 0.254%
Swelling ratio (%) ([5]; 2.5 mg/kg sublingual intravenous injection, 180 min): 0.800 ± 0.339%
Swelling ratio (%) ([5]; 2.5 mg/kg sublingual intravenous injection, 240 min): 0.865 ± 0.303%
Swelling ratio (%) ([5]; 2.5 mg/kg sublingual intravenous injection, 300 min): 1.045 ± 0.308%
Swelling ratio (%) ([5]; 2.5 mg/kg sublingual intravenous injection, 360 min): 0.930 ± 0.200%
Swelling ratio (%) ([5]; 5.0 mg/kg sublingual intravenous injection, 30 min): 0.065 ± 0.112 %
Swelling ratio (%) ([5]; 5.0 mg/kg sublingual intravenous injection, 60 min): 0.127 ± 0.178 %
Swelling ratio (%) ([5]; 5.0 mg/kg sublingual intravenous injection, 120 min): 0.209 ± 0.438 %
Swelling ratio (%) ([5]; 5.0 mg/kg sublingual intravenous injection, 180 min): 0.338 ± 0.524 %
Swelling ratio (%) ([5]; 5.0 mg/kg sublingual intravenous injection, 240 min): 0.461 ± 0.402**^Δ %
Swelling ratio (%) ([5]; 5.0 mg/kg sublingual intravenous injection, 300 min): 0.688 ± 0.503%
Swelling ratio (%) ([5]; 5.0 mg/kg sublingual intravenous injection, 360 min): 0.675 ± 0.578%
Swelling ratio (%) ([5]; 10.0 mg/kg sublingual intravenous injection, 30 min): 0.025 ± 0.210***^Δ▴▴▴ %
Swelling ratio (%) ([5]; 10.0 mg/kg sublingual intravenous injection, 60 min): 0.079 ± 0.156**^Δ▴▴ %
Swelling ratio (%) ([5]; 10.0 mg/kg sublingual intravenous injection, 120 min): 0.140 ± 0.156 %
Swelling ratio (%) ([5]; 10.0 mg/kg sublingual intravenous injection, 180 min): 0.191 ± 0.216 %
Swelling ratio (%) ([5]; 10.0 mg/kg sublingual intravenous injection, 240 min): 0.255 ± 0.294 %
Swelling ratio (%) ([5]; 10.0 mg/kg sublingual intravenous injection, 300 min): 0.310 ± 0.226***^Δ▴▴ %
Swelling ratio (%) ([5]; 10.0 mg/kg sublingual intravenous injection, 360 min): 0.405 ± 0.231 %
effect on the rat paw swelling induced by carrageenin vs blank control group ([5]; high dose group, within 30 min to 360 min after administration): significant inhibitive effects
antiviral effective rate (ER %) [6]: 99.80**^# %
Body temperature (° C.) [7, 8]: 38.93 ± 0.43 °C
antipyretic percentage (%) [7, 8]: −1.01 ± 1.05 %
Body temperature (° C.) [7, 9]: 38.75 ± 0.43 °C
antipyretic percentage (%) [7, 9]: −1.48 ± 1.11 %
Body temperature (° C.) [7, 10]: 38.56 ± 0.52 °C
antipyretic percentage (%) [7, 10]: −1.97 ± 1.67 %
Body temperature (° C.) [7, 11]: 38.25 ± 0.58 °C
antipyretic percentage (%) [7, 11]: −2.47 ± 1.80 %
Body temperature (° C.) [7, 12]: 38.48 ± 0.59 °C
antipyretic percentage (%) [7, 12]: −1.91 ± 0.40 %
Body temperature (° C.) [7, 13]: 38.33 ± 0.50 °C
antipyretic percentage (%) [7, 13]: −2.29 ± 0.54**^Δ▴▴ %
Body temperature (° C.) [7, 14]: 37.85 ± 0.33 °C
antipyretic percentage (%) [7, 14]: −3.52 ± 0.38***^Δ▴ %
Body temperature (° C.) [7, 15]: 37.67 ± 0.45 °C
antipyretic percentage (%) [7, 15]: −3.98 ± 0.52***^Δ▴▴ %
Body temperature (° C.) [7, 16]: 38.61 ± 0.51 °C
antipyretic percentage (%) [7, 16]: −2.10 ± 0.53**^Δ▴▴ %
Body temperature (° C.) ([7]; 10.0 mg/kg, 2 h after administration): 39.13 ± 0.45 °C
Body temperature (° C.) [7, 17]: 37.8 ± 0.40 °C
antipyretic percentage (%) [7, 17]: −4.01 ± 1.12***^Δ▴▴ %
Body temperature (° C.) [7, 18]: 37.74 ± 0.31 °C
antipyretic percentage (%) [7, 18]: −4.30 ± 1.26***^Δ▴▴ %
effect on the rat fever induced by beer yeast suspension vs model group ([7]; medium and high dose groups (5, 10 mg/kg), 1 h, 2 h, 3 h and 4 h after administration): significant cooling effects
